Data published in PMC4133811 (BMB Reports, 2012).

What was measured:
Assay in all cases: NADH oxidation at […] nm, reductive amination of 2-oxoglutarate
Assay type in all cases: biochemical
[1] = biological target: hGDH2 (human glutamate dehydrogenase isozyme 2) (Homo sapiens, UniProt P49448, C254A)
[2] = biological target: hGDH2 (human glutamate dehydrogenase isozyme 2) (Homo sapiens, UniProt P49448, C327A)
[3] = biological target: hGDH2 (human glutamate dehydrogenase isozyme 2) (Homo sapiens, UniProt P49448, C112A)
[4] = biological target: hGDH2 (human glutamate dehydrogenase isozyme 2) (Homo sapiens, UniProt P49448)
[5] = biological target: hGDH2 (human glutamate dehydrogenase isozyme 2) (Homo sapiens, UniProt P49448, C172A)
[6] = biological target: hGDH2 (human glutamate dehydrogenase isozyme 2) (Homo sapiens, UniProt P49448, C146A)
Sequence of hGDH2 (human glutamate dehydrogenase isozyme 2) (Homo sapiens, UniProt P49448, C146A) (P49448 54-558 C146A): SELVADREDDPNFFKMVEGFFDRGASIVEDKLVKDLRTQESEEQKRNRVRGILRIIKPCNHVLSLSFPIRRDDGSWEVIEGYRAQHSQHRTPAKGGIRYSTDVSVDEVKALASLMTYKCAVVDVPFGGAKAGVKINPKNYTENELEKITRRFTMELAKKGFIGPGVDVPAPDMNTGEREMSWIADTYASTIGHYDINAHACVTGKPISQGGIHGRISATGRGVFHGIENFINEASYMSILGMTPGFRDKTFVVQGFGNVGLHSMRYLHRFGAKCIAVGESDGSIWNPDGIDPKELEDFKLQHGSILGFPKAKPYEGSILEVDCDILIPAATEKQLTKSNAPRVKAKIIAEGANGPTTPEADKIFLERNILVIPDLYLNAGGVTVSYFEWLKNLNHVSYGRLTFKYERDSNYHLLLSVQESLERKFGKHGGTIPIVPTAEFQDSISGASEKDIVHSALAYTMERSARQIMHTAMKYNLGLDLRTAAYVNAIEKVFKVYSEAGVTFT

Sequence of hGDH2 (human glutamate dehydrogenase isozyme 2) (Homo sapiens, UniProt P49448) (P49448 54-558): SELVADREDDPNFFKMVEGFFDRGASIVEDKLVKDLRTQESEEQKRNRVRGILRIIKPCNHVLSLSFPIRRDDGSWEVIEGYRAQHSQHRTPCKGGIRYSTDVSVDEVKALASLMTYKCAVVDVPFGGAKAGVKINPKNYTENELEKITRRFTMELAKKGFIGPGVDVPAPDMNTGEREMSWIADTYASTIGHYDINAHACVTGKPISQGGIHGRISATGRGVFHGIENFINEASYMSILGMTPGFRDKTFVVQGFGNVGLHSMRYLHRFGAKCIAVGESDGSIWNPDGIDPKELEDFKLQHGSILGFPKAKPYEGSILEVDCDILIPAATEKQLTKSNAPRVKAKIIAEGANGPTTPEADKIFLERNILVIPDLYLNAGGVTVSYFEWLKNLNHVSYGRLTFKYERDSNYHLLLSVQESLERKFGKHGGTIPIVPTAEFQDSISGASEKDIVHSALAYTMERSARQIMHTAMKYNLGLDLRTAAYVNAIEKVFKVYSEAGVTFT
Sequence of hGDH2 (human glutamate dehydrogenase isozyme 2) (Homo sapiens, UniProt P49448, C327A) (P49448 54-558 C327A): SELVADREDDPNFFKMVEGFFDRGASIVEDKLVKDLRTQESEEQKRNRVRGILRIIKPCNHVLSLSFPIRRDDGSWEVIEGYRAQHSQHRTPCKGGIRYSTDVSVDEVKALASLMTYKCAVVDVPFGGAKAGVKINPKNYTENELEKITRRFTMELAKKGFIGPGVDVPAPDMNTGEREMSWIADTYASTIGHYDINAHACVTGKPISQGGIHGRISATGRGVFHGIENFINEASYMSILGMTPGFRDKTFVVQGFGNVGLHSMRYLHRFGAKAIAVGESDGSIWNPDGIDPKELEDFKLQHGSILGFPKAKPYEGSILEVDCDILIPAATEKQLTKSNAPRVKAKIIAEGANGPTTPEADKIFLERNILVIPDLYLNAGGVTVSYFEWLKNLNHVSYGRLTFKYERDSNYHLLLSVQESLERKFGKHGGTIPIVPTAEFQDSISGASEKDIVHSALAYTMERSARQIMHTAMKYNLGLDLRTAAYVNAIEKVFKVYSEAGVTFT
Sequence of hGDH2 (human glutamate dehydrogenase isozyme 2) (Homo sapiens, UniProt P49448, C112A) (P49448 54-558 C112A): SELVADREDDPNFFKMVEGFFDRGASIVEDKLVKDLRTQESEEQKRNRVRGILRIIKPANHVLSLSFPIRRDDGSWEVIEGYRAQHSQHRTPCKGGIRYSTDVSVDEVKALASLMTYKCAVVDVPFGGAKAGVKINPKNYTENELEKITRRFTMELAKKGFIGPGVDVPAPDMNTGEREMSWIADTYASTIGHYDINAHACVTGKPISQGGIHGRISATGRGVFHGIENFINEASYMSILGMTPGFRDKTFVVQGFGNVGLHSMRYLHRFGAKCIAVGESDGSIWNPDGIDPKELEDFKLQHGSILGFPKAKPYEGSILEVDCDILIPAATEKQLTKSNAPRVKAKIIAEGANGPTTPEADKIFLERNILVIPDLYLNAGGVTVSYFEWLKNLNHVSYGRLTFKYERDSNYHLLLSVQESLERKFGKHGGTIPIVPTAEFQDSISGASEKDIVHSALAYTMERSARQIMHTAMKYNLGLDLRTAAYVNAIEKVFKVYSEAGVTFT
Sequence of hGDH2 (human glutamate dehydrogenase isozyme 2) (Homo sapiens, UniProt P49448, C172A) (P49448 54-558 C172A): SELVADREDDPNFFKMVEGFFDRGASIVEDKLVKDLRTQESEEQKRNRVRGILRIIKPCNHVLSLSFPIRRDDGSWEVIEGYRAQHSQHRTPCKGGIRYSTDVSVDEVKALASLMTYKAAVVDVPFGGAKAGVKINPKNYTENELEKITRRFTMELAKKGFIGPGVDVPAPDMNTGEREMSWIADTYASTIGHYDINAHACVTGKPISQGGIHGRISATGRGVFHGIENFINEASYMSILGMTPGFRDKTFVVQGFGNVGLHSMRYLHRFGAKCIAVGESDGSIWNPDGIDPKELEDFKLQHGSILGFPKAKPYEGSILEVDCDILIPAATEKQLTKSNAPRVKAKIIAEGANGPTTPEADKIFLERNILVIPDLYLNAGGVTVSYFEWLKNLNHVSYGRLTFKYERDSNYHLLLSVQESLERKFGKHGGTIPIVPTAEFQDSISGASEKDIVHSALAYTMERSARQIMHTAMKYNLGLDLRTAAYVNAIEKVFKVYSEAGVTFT
Sequence of hGDH2 (human glutamate dehydrogenase isozyme 2) (Homo sapiens, UniProt P49448, C254A) (P49448 54-558 C254A): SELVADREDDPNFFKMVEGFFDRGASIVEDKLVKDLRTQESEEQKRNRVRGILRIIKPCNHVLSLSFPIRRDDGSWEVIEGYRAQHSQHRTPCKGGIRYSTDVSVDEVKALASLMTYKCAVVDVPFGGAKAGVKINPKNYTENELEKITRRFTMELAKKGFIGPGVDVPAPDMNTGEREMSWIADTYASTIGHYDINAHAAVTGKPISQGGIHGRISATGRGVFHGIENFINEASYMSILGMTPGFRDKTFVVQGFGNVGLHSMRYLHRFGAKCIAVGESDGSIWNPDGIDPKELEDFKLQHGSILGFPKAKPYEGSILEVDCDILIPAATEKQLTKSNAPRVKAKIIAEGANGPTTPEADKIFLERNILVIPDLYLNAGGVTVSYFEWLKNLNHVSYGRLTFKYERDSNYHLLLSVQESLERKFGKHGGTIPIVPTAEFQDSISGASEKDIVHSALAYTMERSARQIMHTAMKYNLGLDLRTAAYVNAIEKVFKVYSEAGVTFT

CCCCCCCCCCCCCCCC(=O)SCCNC(=O)CCNC(=O)[C@H](O)C(C)(C)COP(=O)(O)OP(=O)(O)OC[C@H]1O[C@@H](n2cnc3c(N)ncnc32)[C@H](O)[C@@H]1OP(=O)(O)O [palmitoyl-CoA]
IC50 [1]: 2470 nM
IC50 [2]: 2310 nM
IC50 [3]: 2150 nM
IC50 [4]: 1820 nM
IC50 [5]: 1980 nM
IC50 [6]: 2600 nM
